We go through two compounds from patent US9493480B2, “Monomeric trioxane amide sulfur compounds” (THE JOHNS HOPKINS UNIVERSITY, priority 2011, dated 2016).

Series [1] relates to Plasmodium berghei, ANKA malaria strain. Description: In vivo antimalarial efficacy, single oral dose of trioxane combined with mefloquine hydrochloride in P. berghei infected mice. As to the method:
[…] Rosenthal, A. S., et al., Malaria-infected Mice are Cured by a Single Oral Dose of New Dimeric Trioxane Sulfones Which are Also Selectively and Powerfully Cytotoxic to Cancer Cells. J. Med. Chem. 2009, 52, 1198-1203. Each of four mice in a group was treated orally 24 hours post infection with a single dose of 0.20 mL [(0.20 mL/1.07 mL)×0.64 mg=0.12 mg] of diluted trioxane solution, […] Alternatively, a single dose of 7.5 mg/kg of trioxane plus 15.0 mg/kg of mefloquine hydrochloride was used. The malariometrics used involved determining blood parasitemia levels, as well as monitoring the duration of animal survival compared to survival time of infected animals receiving no drug.
The average survival time of the malaria-infected animals receiving no drug was 6.8 days post infection. All of the infected mice in this study receiving the trioxane drug artemether (2b) plus mefloquine died on the average on day 18.8 post infection (Table 1, controls). Additionally, a single oral dose of artemether (6 mg/kg) plus lumefantrine (18 mg/kg) was not curative (see Table 1), with the mice dying an average of 12.5 days after infection. […]
(§1) A widely accepted indication of complete cure (i.e., 100% efficacy) is survival of animals to day 30 post infection with no detectable malaria parasites in the animals' blood at that time. It is important to note that the combination of the standard trioxane drug artemether (2b), with either mefloquine hydrochloride or lumefantrine, was not curative (Table 1, controls). […] While 3-fluoroanilide 12b was not curative, administration of 3-methylthioether 3-arteSanilide 12d at a dose of 7.5 mg/kg plus 15 mg/kg mefloquine hydrochloride achieved mouse survival through day 30 after infection; however, all four of the surviving mice appeared sick and had considerable parasitemia levels (25-50%). […] In addition, 3-arteSanilide 12d is more efficacious than 4-arteSanilide 12c. […] Replacing the sulfur atom in 12d with an oxygen atom afforded methyl ether 12p, which prolonged survival time to only 21.8 days after infection. This observation indicates the critical nature of the sulfur atom. In addition, the lipophilicity of 3-arteSanilide 12d was increased by lengthening the alkyl sulfide chain from methyl to n-propyl. 3-n-Propyl sulfide 12l, however, is much less efficacious than the curative methyl sulfide 3-arteSanilide 12d.

The subject of series [2] is P. falciparum (NF54) Parasites. Briefly: In vitro antimalarial potencies of trioxanes against P. falciparum (NF54) parasites. The format is cell-based. To be noted: Plasmodium falciparum, M ± SD of at least four determinations. As to the method: Biology: In Vitro Potencies. Prompted by the unexpected in vivo efficacy of 3-arteSanilide 12d, the in vitro the intrinsic antimalarial activity, free of host-mediated factors, was assayed of compounds that differ in the oxidative state of the sulfur atom (Table 2).

The nature of series [3]: Stability of the neat compound at 60° C. As to conditions: absence of solvent. It is filed as physicochemical. The source says: Hydroboration-oxidation followed by oxidation of the resulting primary alcohol produced C-10 carboxylic acid 11. Posner, G. H., et al., Orally Active, Antimalarial, Anticancer, Artemisinin-derived Trioxane Dimers with High Stability and Efficacy. J. Med. Chem. 2003, 46, 1060-1065. Condensation of carboxylic acid 11 with various anilines yielded a library of C-10 monomeric trioxane anilides 12b-h, 12l, 12o-q (FIG. 2). Scale up synthesis is expected to be straightforward. Without wishing to be bound to any one particular theory, because these anilides 12b-q are C-10 non-acetal derivatives, they are more hydrolytic ally stable than the C-10 acetal first generation artemisinin derivatives, such as artemether (2b) or artesunate (2c). In the absence of solvent, neat 3-arteSanilide 12d, for example, is stable for at least 7 days at 60° C.

A short description of series [4]: Overt toxicity, behavior and weight gain of treated malaria-infected mice. The format is in vivo. The method, then:
as §1

The subject of series [5] is P388 leukemia. As to conditions: NCI Report on NSC 369397, tested on 25 Oct. 1983; cited from earlier work.
Setting [6] is: single oral dose 100 mg/kg, no mefloquine.

Each structure is given as a SMILES string. Entries after “also recorded” stand apart in the source; their conditions may differ. Bounds are passed on as bounds.

Broadly, the EC50 is the concentration needed to bring the measured effect to its halfway point. High values mean a need for much substance, low ones an effect from little substance. For the compound `CSc1cccc(NC(=O)CC[C@H]2O[C@@H]3O[C@@]4(C)CC[C@H]5[C@H](C)CC[C@@H]([C@H]2C)[C@@]35OO4)c1` [12d, 3-arteSanilide], in series [1] (Plasmodium berghei, 72 h, single oral dose: trioxane 100 mg/kg, no mefloquine, read-out: % suppression of parasitemia (on day 3 after infection)), the inhibition in vivo at 100 mg/kg was found to be 97.2%. Besides, the “parasitemia in uninfected mice inoculated with blood from the cured mice” value in series [1] (donors: 6 mg/kg trioxane + 18 mg/kg mefloquine, read after 30 days) was “no parasitemia was detected”. Also, in series [1] (setting [6]), the “mouse survival in words” value is reported as “prolonged mouse survival”. Also, the “average survival (days) after infection” value in series [1] (single oral dose 24 h post infection: trioxane 6 mg/kg + mefloquine hydrochloride 18 mg/kg, C57BL/6J male mice, 4 per group) was found to be 30 days; in series [1] (single oral dose: trioxane 7.5 mg/kg + mefloquine hydrochloride 15 mg/kg, mice, 4 per group) it was 30 days; in series [1] (single oral dose: trioxane 100 mg/kg, no mefloquine) it was 15.0 days. For the same compound, the “cure outcome (survival to day 30 with no detectable parasites = complete cure)” value in series [1] (single oral dose of trioxane (6 mg/kg) combined with mefloquine hydrochloride (18 mg/kg)) is recorded as “complete cure; also recorded: cures malaria-infected mice”. In addition, the “% suppression of parasitemia (on day 3 after infection)” value in series [1] (single oral dose: trioxane 6 mg/kg + mefloquine hydrochloride 18 mg/kg) and in series [1] (single oral dose: trioxane 7.5 mg/kg + mefloquine hydrochloride 15 mg/kg) was above 99.9% in each case. For the same compound, the “parasitemia on day 30 after infection in surviving mice” value in series [1] (single oral dose: trioxane 6 mg/kg + mefloquine hydrochloride 18 mg/kg, value of one mouse where so stated) is “^bNo parasitemia detected on day 30 after infection”. In series [2], this compound yielded an EC50 of 9.1 ± 0.57 nM. In series [3], the “time stable, neat” value was “at least 7 days”. Moreover, the “weight gain by day 30 after infection” value in series [4] (6 mg/kg trioxane + 18 mg/kg mefloquine, compared with uninfected control mice) is recorded as “gained as much weight by day 30 after infection (data not shown) as the uninfected control mice; also recorded: gain as much weight as the control mice”. The “overt toxicity or behavioral change attributable to trioxane administration” value in series [4] (malaria-infected mice cured by trioxane combined with mefloquine hydrochloride) is recorded as “neither overt toxicity nor behavioral change”. Moreover, the “toxicity of single oral dose” value in series [4] (setting [6]) is on record as “nontoxic”.

On to `C[C@@H]1CC[C@H]2[C@@H](C)C(=O)O[C@@H]3O[C@@]4(C)CC[C@@H]1[C@]32OO4` [Artemisinin (1), artemisinin, reference compound], for which, in series [2], the EC50 is 10 ± 1.1 nM. Besides, the “activity against P388 leukemia” value in series [5] is “inactive”.
